Numbers after ± are expanded uncertainties.
Experiment: mn = molality of the nth substance listed, in mol/kg
Details: 101.3 kPa, Liquid, Vibrating tube method

NCC(=O)NCC(=O)O [glycylglycine] + O
mass density [kg/m3]
Details | m1 = 0.0949 | m1 = 0.2052 | m1 = 0.2997 | m1 = 0.4062 | m1 = 0.5069
298.15 K | 1002.54 ± 0.07 | 1008.5 ± 0.07 | 1013.49 ± 0.08 | 1018.99 ± 0.09 | 1024.06 ± 0.1
308.15 K | 999.21 ± 0.07 | 1005.1 ± 0.07 | 1010.03 ± 0.08 | 1015.47 ± 0.09 | 1020.5 ± 0.1

Reference: the NIST ThermoML archive (doi:10.1016/j.tca.2004.12.008)
